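The compound was tested at five concentrations on cells cultured in 96-well plates, with a 48-hour exposure period. The concentration for full growth arrest is given as TGI.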
How the values were obtained:
Assay in all cases: DTP human tumour cell line panel, 48 h
[1] = tested on: SK-MEL-5 melanoma
[2] = tested on: OVCAR-4 ovarian
[3] = tested on: LXFL 529 NSCLC
[4] = tested on: MALME-3M melanoma
[5] = tested on: A549 NSCLC
[6] = tested on: COLO 205 colon
[7] = tested on: NCI-H460 lung
[8] = tested on: HCC-2998 colon
[9] = tested on: HOP-18 NSCLC
[10] = tested on: TK-10 renal
[11] = tested on: M19-MEL melanoma
[12] = tested on: 786-0 renal
[13] = tested on: SF-268 CNS
[14] = tested on: SK-MEL-2 melanoma
[15] = tested on: HCT-116 colon
[16] = tested on: K-562 leukemia
[17] = tested on: IGROV1 ovarian
[18] = tested on: NCI-H226 lung
[19] = tested on: CAKI-1 renal
[20] = tested on: U251 CNS
[21] = tested on: UO-31 renal
[22] = tested on: LOX IMVI melanoma
[23] = tested on: RPMI-8226 leukemia
[24] = tested on: HT29 colon
[25] = tested on: OVCAR-5 ovarian
[26] = tested on: NCI-H522 lung
[27] = tested on: SNB-75 CNS
[28] = tested on: MOLT-4 leukemia
[29] = tested on: HCT-15 colon
[30] = tested on: XF 498 CNS
[31] = tested on: M14 melanoma
[32] = tested on: SF-295 CNS
[33] = tested on: SR leukemia
[34] = tested on: ACHN renal
[35] = tested on: DMS 273 small cell lung
[36] = tested on: HOP-62 NSCLC
[37] = tested on: UACC-62 melanoma
[38] = tested on: SW-620 colon
[39] = tested on: CCRF-CEM leukemia
[40] = tested on: DLD-1 colon
[41] = tested on: DMS 114 small cell lung
[42] = tested on: A498 renal
[43] = tested on: KM12 colon
[44] = tested on: RXF-631 renal
[45] = tested on: SNB-19 CNS
[46] = tested on: SN12C renal
[47] = tested on: NCI-H23 lung
[48] = tested on: SF-539 CNS
[49] = tested on: OVCAR-3 ovarian
[50] = tested on: RXF 393 renal
[51] = tested on: OVCAR-8 ovarian
[52] = tested on: SK-MEL-28 melanoma
[53] = tested on: UACC-257 melanoma
[54] = tested on: HOP-92 NSCLC

## COc1cccc(/C=C2\CCC(CCN(C)C)(C3=CCCC3)C2=O)c1 (centres undefined)
[1]
  TGI: 32.4 µM
[2]
  TGI: 30.5 µM
[3]
  TGI: 28.9 µM
[4]
  TGI: 31.2 µM
[5]
  TGI: 32.6 µM
[6]
  TGI: 21.3 µM
[7]
  TGI: 29.9 µM
[8]
  TGI: 30.4 µM
[9]
  TGI: 27.2 µM
[10]
  TGI: 29.3 µM
[11]
  TGI: 30 µM
[12]
  TGI: 27.9 µM
[13]
  TGI: 45.6 µM
[14]
  TGI: 29.9 µM
[15]
  TGI: 27.7 µM
[16]
  TGI: 36 µM
[17]
  TGI: 32.5 µM
[18]
  TGI: 31.2 µM
[19]
  TGI: 25.2 µM
[20]
  TGI: 30.6 µM
[21]
  TGI: 26.5 µM
[22]
  TGI: 30.2 µM
[23]
  TGI: 41.7 µM
[24]
  TGI: 29.2 µM
[25]
  TGI: 28.1 µM
[26]
  TGI: 26.9 µM
[27]
  TGI: 35 µM
[28]
  TGI: 34.1 µM
[29]
  TGI: 31.1 µM
[30]
  TGI: 31.9 µM
[31]
  TGI: 27.4 µM
[32]
  TGI: 31.1 µM
[33]
  TGI: 57.4 µM
[34]
  TGI: 30.5 µM
[35]
  TGI: 28 µM
[36]
  TGI: 32 µM
[37]
  TGI: 30 µM
[38]
  TGI: 27.1 µM
[39]
  TGI: 40.8 µM
[40]
  TGI: 36.4 µM
[41]
  TGI: 31.4 µM
[42]
  TGI: 30.8 µM
[43]
  TGI: 31 µM
[44]
  TGI: 43.4 µM
[45]
  TGI: 31.1 µM
[46]
  TGI: 28.6 µM
[47]
  TGI: 41.4 µM
[48]
  TGI: 29.7 µM
[49]
  TGI: 34 µM
[50]
  TGI: 21.7 µM
[51]
  TGI: 32.1 µM
[52]
  TGI: 31.3 µM
[53]
  TGI: 28.8 µM
[54]
  TGI: 28.6 µM

Reference: PubChem BioAssay (NCI)
